Measurements reported in US10364263B2, “Cyclic phosphates and cyclic phosphoramidates for the treatment of neurologic disorders” (Retrophin, Inc., priority 2015, dated 2019).

Legend:
[1] = test system: PANK2 silenced human neuroblastoma IMR32 cells (PANK2−/−); assay: Coenzyme A assay in PANK2 silenced cells (LC-MS quantification of free CoA); assay type: cell-based; conditions: compound added twice (24 h + 24 h), relative to 0.1% DMSO controls
Procedure, shortened: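 PANK2 shRNA-silenced IMR32 neuroblastoma cells were treated with compound (0.1% DMSO) for 24 h, then re-dosed with fresh compound for a further 24 h at 37 °C. TFA extracts of 1×10^6 cells were assayed for free CoA by LC-MS/MS (MRM 768.1→261.6/136.1). Results are given as fold change versus DMSO controls.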

[2] = Stability in human plasma; assay type: in vitro ADME; conditions: human, plasma, 37° C.
Method: (§1) Compounds and positive control samples were dissolved in 100% DMSO at 3 mM. To investigate the stability of the test compounds in plasma, samples were made by diluting test compounds into plasma from the stock solutions to obtain a test compound concentration of 3 μM (0.1% DMSO). Before addition of a test compound, 990 μl of plasma were preincubated at 37° C. for 5 min in eppendorf. After addition of a test compound, 70 μl for each time point were transferred to a 96-deepwell plate, previously warmed at 37° C. in a DUBNOFF water bath. Each compound was tested at five time points, in duplicate (10, 20, 30, 40 and 60 min). At each time point, an aliquot of 50 μl was taken and transferred to a new 96-deepwell plate, and the reaction was stopped with 200 μl of 100% acetonitrile containing 0.1% formic acid and the appropriate internal standard. Then samples were centrifuged at 1100×g for 30 min at +4° C. and supernatants were transferred to a new 96-deepwell plate. Samples were evaporated under N2 and reconstituted in H2O/ACN 0.1% Formic Acid (98:2). Analysis was performed without a calibration curve (Acquity UPLC-Waters; SciexAPI4000). Time 0 was obtained by adding acetonitrile before addition of the test compound.

[3] = Stability in mouse plasma; assay type: in vitro ADME; conditions: mouse, plasma; for t1/2, Mouse Plasma, Diastereoisomer B: 3 µM
Method: as §1

[4] = Diastereoisomer A (upfield shift in 31P NMR), read-out: t1/2, Human Plasma, Diastereoisomer A (converted)
[5] = Diastereoisomer B, read-out: t1/2, Human Plasma, Diastereoisomer B (converted)

| Structure (SMILES) | half-life at 3 µM [2, 4] [min] | half-life at 3 µM [2, 5] [min] | half-life at 3 µM [3] [min] | t1/2, Mouse Plasma, Diastereoisomer B [3] [min] | PANK2−/− CoA (Fold Increase): fold increase in Coenzyme A (CoA) levels relative to controls [1] [Fold Increase] |
| --- | --- | --- | --- | --- | --- |
| CC(C)(C)C(=O)OCOP1(=O)OCC(C)(C)[C@H](C(=O)NCCC(=O)OC2CCOC2)O1 (stereo partly drawn) [Compound No. 94, (((4R)-5,5-dimethyl-2-oxido-4-((3-oxo-3-((tetrahydrofuran-3-yl)oxy)propyl)carbamoyl)-1,3,2-dioxaphosphinan-2-yl)oxy)methyl pivalate] | 40.8 | < 9.6 | < 9.6 | <9.6 | 13.14 |
| CC(C)(C)C(=O)OCOP1(=O)OCC(C)(C)[C@H](C(=O)NCCC(=O)OCc2ncccn2)O1 (stereo partly drawn) [Compound No. 95, (((4R)-5,5-dimethyl-2-oxido-4-((3-oxo-3-(pyrimidin-2-ylmethoxy)propyl)carbamoyl)-1,3,2-dioxaphosphinan-2-yl)oxy)methyl pivalate] | > 60 | < 9.6 | < 9.6 | <9.6 | 54.03 |
| COC(=O)CCNC(=O)[C@@H]1OP(=O)(N[C@@H](C)C(=O)OCCN2CCOCC2)OCC1(C)C (stereo partly drawn) [compound 27, methyl 3-((4R)-5,5-dimethyl-2-(((S)-1-(2-morpholinoethoxy)-1-oxopropan-2-yl)amino)-2-oxido-1,3,2-dioxaphosphinane-4-carboxamido)propanoate] | > 60 | – | < 9.6 | – | 1.49 |
| C[C@H](NP1(=O)OCC(C)(C)[C@H](C(=O)NCCC(=O)OC(C)(C)C)O1)C(=O)OCCc1ccccc1 (stereo partly drawn) [compound 33, tert-butyl 3-((4R)-5,5-dimethyl-2-oxido-2-(((S)-1-oxo-1-phenethoxypropan-2-yl)amino)-1,3,2-dioxaphosphinane-4-carboxamido)propanoate] | > 60 | > 60 | < 9.6 | <9.6 | 0.8 |
| C[C@H](NP1(=O)OCC(C)(C)[C@H](C(=O)NCCC(=O)OCc2cnccn2)O1)C(=O)OCCc1ccccc1 (stereo partly drawn) [compound 39, phenethyl ((4R)-5,5-dimethyl-2-oxido-4-((3-oxo-3-(pyrazin-2-ylmethoxy)propyl)carbamoyl)-1,3,2-dioxaphosphinan-2-yl)-L-alaninate] | > 60 | > 60 | < 9.6 | <9.6 | 2.18 |
| Cc1cc(COC(=O)CCNC(=O)[C@@H]2OP(=O)(N[C@@H](C)C(=O)OCCc3ccccc3)OCC2(C)C)no1 (stereo partly drawn) [compound 40, (5-methylisoxazol-3-yl)methyl 3-((4R)-5,5-dimethyl-2-oxido-2-(((S)-1-oxo-1-phenethoxypropan-2-yl)amino)-1,3,2-dioxaphosphinane-4-carboxamido)propanoate] | > 60 | > 60 | < 9.6 | <9.6 | 2.77 |
| C[C@H](NP1(=O)OCC(C)(C)[C@H](C(=O)NCCC(=O)O)O1)C(=O)OCCc1ccccc1 (stereo partly drawn) [compound 41, 3-((4R)-5,5-dimethyl-2-oxido-2-(((S)-1-oxo-1-phenethoxypropan-2-yl)amino)-1,3,2-dioxaphosphinane-4-carboxamido)propanoic acid] | > 60 | – | 12 | – | 2.02 |
| COC(=O)CCNC(=O)[C@@H]1OP(=O)(OCOC(=O)CN2CCN(C(C)=O)CC2)OCC1(C)C (stereo partly drawn) [compound 80, methyl 3-((4R)-2-((2-(4-acetylpiperazin-1-yl)acetoxy)methoxy)-5,5-dimethyl-2-oxido-1,3,2-dioxaphosphinane-4-carboxamido)propanoate] | 40.2 | – | < 9.6 | – | 1.48 |
| COC(=O)CCNC(=O)[C@@H]1OP(=O)(OCOC(=O)c2cnccn2)OCC1(C)C (stereo partly drawn) [compound 86, (((4R)-4-((3-methoxy-3-oxopropyl)carbamoyl)-5,5-dimethyl-2-oxido-1,3,2-dioxaphosphinan-2-yl)oxy)methyl pyrazine-2-carboxylate] | < 9.6 | < 9.6 | < 9.6 | <9.6 | 2.45 |
| COC(=O)CCNC(=O)[C@@H]1OP(=O)(OCOC(=O)OC(C)(C)C)OCC1(C)C (stereo partly drawn) [compound 88, methyl 3-((4R)-2-(((tert-butoxycarbonyl)oxy)methoxy)-5,5-dimethyl-2-oxido-1,3,2-dioxaphosphinane-4-carboxamido)propanoate] | 42.6 | 21.6 | < 9.6 | <9.6 | 2.66 |

More lines, main results first:

| half-life at 3 µM [2, 4] [min] | half-life at 3 µM [2, 5] [min] | half-life at 3 µM [3] [min] | t1/2, Mouse Plasma, Diastereoisomer B [3] [min] | Structure (SMILES) | PANK2−/− CoA (Fold Increase): fold increase in Coenzyme A (CoA) levels relative to controls [1] [Fold Increase] |
| --- | --- | --- | --- | --- | --- |
| < 9.6 | – | < 9.6 | – | COC(=O)CCNC(=O)[C@@H]1OP(=O)(OCOC(=O)OCc2cccnc2)OCC1(C)C (stereo partly drawn) [Compound No. 97, Methyl 3-((4R)-5,5-dimethyl-2-oxido-2-((((pyridin-3-ylmethoxy)carbonyl)oxy)methoxy)-1,3,2-dioxaphosphinane-4-carboxamido)propanoate] | 77.04 |
| > 60 | 39 | < 9.6 | <9.6 | COC(=O)CCNC(=O)[C@@H]1OP(=O)(N[C@H](C)C(=O)OCc2cccnc2)OCC1(C)C (stereo partly drawn) [compound 28, methyl 3-((4R)-5,5-dimethyl-2-oxido-2-(((R)-1-oxo-1-(pyridin-3-ylmethoxy)propan-2-yl)amino)-1,3,2-dioxaphosphinane-4-carboxamido)propanoate] | 0.87 |
| 49.8 | > 60 | < 9.6 | <9.6 | COC(=O)CCNC(=O)[C@@H]1OP(=O)(N[C@@H](Cc2cccnc2)C(=O)OCc2ccccc2)OCC1(C)C (stereo partly drawn) [compound 30, (2S)-benzyl 2-(((4R)-4-((3-methoxy-3-oxopropyl)carbamoyl)-5,5-dimethyl-2-oxido-1,3,2-dioxaphosphinan-2-yl)amino)-3-(pyridin-3-yl)propanoate] | 0.93 |
| > 60 | > 60 | < 9.6 | <9.6 | COC(=O)CCNC(=O)[C@@H]1OP(=O)(N[C@@H](C)C(=O)OCCc2scnc2C)OCC1(C)C (stereo partly drawn) [compound 31, methyl 3-((4R)-5,5-dimethyl-2-(((S)-1-(2-(4-methylthiazol-5-yl)ethoxy)-1-oxopropan-2-yl)amino)-2-oxido-1,3,2-dioxaphosphinane-4-carboxamido)propanoate] | 1.1 |
| > 60 | > 60 | < 9.6 | <9.6 | COC(=O)CCNC(=O)[C@@H]1OP(=O)(N[C@H](C)C(=O)OCCc2scnc2C)OCC1(C)C (stereo partly drawn) [compound 32, methyl 3-((4R)-5,5-dimethyl-2-(((R)-1-(2-(4-methylthiazol-5-yl)ethoxy)-1-oxopropan-2-yl)amino)-2-oxido-1,3,2-dioxaphosphinane-4-carboxamido)propanoate] | 1.49 |
| > 60 | – | < 9.6 | – | COC(=O)CCNC(=O)[C@@H]1O[P@@](=O)(N[C@@H](C)C(=O)OC2Cc3ccccc3C2)OCC1(C)C [compound 43, 2,3-dihydio-1H-inden-2-yl ((2R,4R)-4-((3-methoxy-3-oxopropyl)carbamoyl)-5,5-dimethyl-2-oxido-1,3,2-dioxaphosphinan-2-yl)-L-alaninate] | 1.97 |
| > 60 | > 60 | < 9.6 | <9.6 | COC(=O)CCNC(=O)[C@@H]1OP(=O)(OCCc2cccnc2)OCC1(C)C (stereo partly drawn) [compound 61, methyl 3-((4R)-5,5-dimethyl-2-oxido-2-(2-(pyridin-3-yl)ethoxy)-1,3,2-dioxaphosphinane-4-carboxamido)propanoate] | 1.93 |
